Assay [1] can be described thus: Gel time by Brookfield viscosity (time to 2500 cps), masterbatch of Examples 1-8 and A-J. More on the design: key to Gel Time @250F (120C): minutes to reach target viscosity (gel time); GEL TIME @ 130°C: unit: min. Particulars: for GEL TIME @ 130°C: 0.16%Sn, time to reach 2500 cps (gel times in mins). As for the experimental part: (§1) Solids content was maintained between 50-60%.
(§2) Comparison of catalyst activity was determined by monitoring viscosity as a function of cure time. A Brookfield viscometer fitted with a heated cell was connected to a strip chart recorder. A 10 gram aliquot of the formulation with the desired catalyst was placed in the chamber and rapidly heated to the test temperature. A #27 speed spindle was immersed into the solution and the initial viscosity measured. The rate of increase in viscosity was monitored until a viscosity of 2500 cps was achieved. In almost all the examples the formulation gelled at this viscosity. The time required to reach this viscosity was termed "gel time" at the test temperature. This technique provides information on the time required to reach a target viscosity and on the rate of increase in viscosity for a given system and compares the relative reactivity of different catalysts in a specific formulation at the same temperature. Variability in gel time is +/- 0.5-1.0 mins and is limited by the accuracy of weighing of the catalyst. […] Gel time measurements were then correlated with film properties.
The components were stirred to ensure complete solubility, usually from 2 to 4 hours. • Desmophen A565 (215g, 42.9 wt%) • Desmodur BL 3175 A (140g, 27.9 wt%) • methyl amyl ketone (58.5g, 11.7 wt%) • methy isobutyl ketone (58.5g, 11.7 wt%) • propylene glycol methyl ether acetate (29.0g, 5.8 wt%)
(§3) For each evaluation, a 10g aliquot of this master batch was removed and the appropriate catalyst added.

Assay [2] is described as follows: Gel time by Brookfield viscosity (time to 2500 cps), masterbatch of Examples 9-12 and K, Zn salts as co-catalysts. The following applies: 0.16 %Sn, co-catalyst 0.07 %Zn where used. As for the experimental part:
as §1, §2
In comparative example K and operative examples 9 to 12 a masterbatch of the following mixture was prepared. The components were stirred to ensure complete solubility, usually from 2 to 4 hours. • Desmophen A565 215g • Desmodur BL 3175 A 140g • Methyl isobutyl ketone 146.4g
as §3

For the compound `CCCCCCCCCCCC(=O)[O][Sn]([CH2]CCC)([CH2]CCC)[O]C(=O)CCCCCCCCCCC` [A, Dibutyl Sn Dilaurate, reference compound], in assay [1], the “GEL TIME @ 130°C” value worked out at 22.2. For the same compound, the “Gel Time @250F (120C)” value in assay [1] (0.20 %Sn) is on record as 48.7. In assay [2], the “Gel Time @ 120°C” value is reported as 45 min and the “Gel Time @ 125°C” value was 29 min.
For the compound `CCC[CH2][Sn]([CH2]CCC)([O]C(C)=O)[O]C(C)=O` [B, Dibutyl Sn Diacetate, reference compound], in assay [1] (0.16 %Sn), the “Gel Time @250F (120C)” value worked out at 45 and the “Gel Time @266F (130C)” value came out at 21.3 min. Also, the “GEL TIME @ 130°C” value in assay [1] came out at 21.2.
Take `CCC[CH2][Sn](=[O])[CH2]CCC` [C, Dibutyl Sn Oxide, reference compound]: the “Gel Time @266F (130C)” value in assay [1] (0.16 %Sn) is reported as 23.2 min. The “GEL TIME @ 130°C” value in assay [1] came to 23.2.
Consider `CCC[CH2][Sn]([CH2]CCC)([O]C(C)=O)[O][Sn]([CH2]CCC)([CH2]CCC)[O]C(C)=O` [D, Dibutyl Diacetoxy Stannox n=0, reference compound], for which, in assay [1] (0.16 %Sn), the “Gel Time @250F (120C)” value is reported as 38 and the “Gel Time @266F (130C)” value is listed as 18.6 min. Besides, the “GEL TIME @ 130°C” value in assay [1] worked out at 18.6.
For the compound “Dibutyl Di Octylmaleate Stannox n=6 [Example 3]”, the “GEL TIME @ 130°C” value in assay [1] came out at 20.4.
Consider “Dibutyl Diacetoxy Stannox n=3 [Example 1]”, for which, in assay [1] (0.16 %Sn), the “Gel Time @250F (120C)” value is given as 36.1 and the “Gel Time @266F (130C)” value is listed as 17.2 min. For the same compound, the “GEL TIME @ 130°C” value in assay [1] worked out at 17.2.
As for “Dibutyl Diacetoxy Stannox n=6 [Example 2]”, in assay [1] (0.16 %Sn), the “Gel Time @250F (120C)” value was determined as 32.5 and the “Gel Time @266F (130C)” value stood at 16.5 min. Besides, in assay [1], the “GEL TIME @ 130°C” value is given as 16.4.
Consider “Dibutyl Diformyloxy Stannox (n=3) [Example 4]”, for which, in assay [1] (0.20 %Sn), the “Gel Time @250F (120C)” value amounted to 27.5 and the “Gel Time @266F (130C)” value is given as 15.9 min.
Regarding “Dibutyl Diformyloxy Stannox (n=6) [Example 5]”, the “Gel Time @250F (120C)” value in assay [1] (0.20 %Sn) turned out to be 25.6.
For the compound “Dibutyl Diformyloxy Stannox (n=14) [Example 6]”, in assay [1] (0.20 %Sn), the “Gel Time @250F (120C)” value amounted to 24.1 and the “Gel Time @266F (130C)” value turned out to be 14.4 min. Further, in assay [2], the “Gel Time @ 120°C” value came out at 29 min and the “Gel Time @ 125°C” value stood at 19 min.

Values taken from patent publication EP0810245A1, “Catalyst for low temperature cure of blocked isocyanates” (ELF ATOCHEM NORTH AMERICA, INC., priority 1996, dated 1997).
